The results in this text go back to patent US6861427B2, “Azabicyclylmethyl derivatives of 2,3-dihydro-1,4-dioxino[2,3-f]quinoline as 5-HT1A antagonists” (Wyeth, priority 2001, dated 2005).

In one series the target is T1, human 5-HT1A receptors (Homo sapiens, UniProt P08908).
T1 construct: expressed in transfected cells; host or cells: CHO cells
T1 sequence (P08908 1-422): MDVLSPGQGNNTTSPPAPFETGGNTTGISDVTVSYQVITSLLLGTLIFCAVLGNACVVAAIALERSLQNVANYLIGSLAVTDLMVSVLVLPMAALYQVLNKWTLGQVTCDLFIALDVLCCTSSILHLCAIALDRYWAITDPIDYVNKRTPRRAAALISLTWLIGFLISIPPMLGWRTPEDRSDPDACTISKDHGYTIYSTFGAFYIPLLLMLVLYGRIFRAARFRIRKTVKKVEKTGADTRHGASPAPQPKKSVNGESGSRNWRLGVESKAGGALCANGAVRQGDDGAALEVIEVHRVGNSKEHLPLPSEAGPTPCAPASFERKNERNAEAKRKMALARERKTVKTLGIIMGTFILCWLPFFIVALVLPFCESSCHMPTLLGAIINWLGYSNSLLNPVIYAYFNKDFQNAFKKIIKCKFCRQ
As to the kind of experiment: [3H] 8-OH-DPAT displacement from the 5-HT1A serotonin receptor (CHO cells). To be noted: displacement of [3H] 8-OH-DPAT, CHO cells stably transfected with human 5-HT1A receptors; read-out: 5-HT1A Receptor Affinity KI. In kind it is binding. The source says: High affinity for the serotonin 5-HT1A receptor was established by testing the claimed compound's ability to displace [^3H] 8-OH-DPAT (dipropylaminotetralin) from the 5-HT1A serotonin receptor following a modification of the procedure of Hall et al., J. Neurochem. 44, 1685 (1985) which utilizes CHO cells stably transfected with human 5-HT1A receptors.

Series [1] deals with T2, cloned human 5-HT1A receptors (Homo sapiens, UniProt P08908).
T2 construct: expressed in transfected cells
T2 sequence (P08908 1-422): T1 sequence (P08908 1-422)
Put plainly: 35S-GTPγS binding assay, antagonist activity versus 8-OH-DPAT. It is filed as biochemical. To be noted: reversal of 8-OH-DPAT-stimulated 35S-GTPγS binding; for IC50: membranes with cloned human 5-HT1A receptors, read-out: 5-HT1A Function IC50. The procedure: Antagonist activity at 5-HT1A receptors was established by using a ^35S-GTPγS binding assay similar to that used by Lazareno and Birdsall (Br. J. Pharmacol. 109: 1120, 1993), in which the test compound's ability to affect the binding of ^35S-GTPγS to membranes containing cloned human 5-HT1A receptors was determined. Agonists produce an increase in binding whereas antagonists produce no increase but rather reverse the effects of the standard agonist 8-OH-DPAT. The test compound's maximum inhibitory effect is represented as the Imax, while its potency is defined by the IC50.
In general terms: GTPγS resists hydrolysis and so accumulates on activated G proteins.

Each structure is given as a SMILES string. Counter-ions that a name gives are not always drawn.

In turn, `Cc1ccc2c3c(ccc2n1)OCC(CN1C2CCC1CC(O)(c1cccc(C(F)(F)F)c1)C2)O3` (stereo not shown) (as salt: fumarate) (hydrate or solvate) [Example 2, 8-{[8-Methyl-2,3-dihydro[1,4]dioxino[2,3-f]quinolin-2-yl]methyl}-3-[3-(trifluoromethyl)phenyl]-8-azabicyclo[3.2.1]octan-3-ol] gave a melting point of 146 to 150 °C.
Same read-out and setting: then `Cc1ccc2c3c(ccc2n1)OCC(CN1C2CCC1CC(O)(c1ccc4ccccc4c1)C2)O3` (stereo not shown) (as salt: fumarate) (hydrate or solvate) [Example 3, 8-{[8-Methyl-2,3-dihydro[1,4]dioxino[2,3-f]quinolin-2-yl}methyl]-3-(2-naphthyl)-8-azabicyclo[3.2.1]octan-3-ol], with 218 to 218.5 °C.
In the case of `Cc1ccc2c3c(ccc2n1)OCC(CN1C2CCC1CC(O)(c1ccccc1)C2)O3` (stereo not shown) [Example 1, 8-{[8-Methyl-2,3-dihydro[1,4]dioxino[2,3-f]quinolin-2-yl]methyl}-3-phenyl-8-azabicyclo[3.2.1]octan-3-ol], the melting point lay within 162 to 165 °C. Moreover, on human 5-HT1A receptors, the Ki came to 2.59 nM. Further, in series [1], the “5-HT1A Function Imax (maximum inhibitory effect)” value was “(98.0)” and the IC50 was 6.85 nM.
As for `Cc1ccc2c3c(ccc2n1)OCC(CN1C2CCC1CC(O)(c1cccc(C(F)(F)F)c1)C2)O3` (stereo not shown) [Example 2, 8-{[8-Methyl-2,3-dihydro[1,4]dioxino[2,3-f]quinolin-2-yl]methyl}-3-[3-(trifluoromethyl)phenyl]-8-azabicyclo[3.2.1]octan-3-ol], the Ki on human 5-HT1A receptors came out at 6.81 nM.
For `Cc1ccc2c3c(ccc2n1)OCC(CN1C2CCC1CC(O)(c1ccc4ccccc4c1)C2)O3` (stereo not shown) [Example 3, 8-{[8-Methyl-2,3-dihydro[1,4]dioxino[2,3-f]quinolin-2-yl}methyl]-3-(2-naphthyl)-8-azabicyclo[3.2.1]octan-3-ol], the Ki at human 5-HT1A receptors is 3.45 nM. Further, in series [1], the “5-HT1A Function Imax (maximum inhibitory effect)” value is reported as “(100)” and the IC50 was 55.5 nM.

A word on the melting point: it is the temperature, or range, at which the solid turns liquid. As usually defined, the Ki is the dissociation constant of the complex between target and ligand, obtained from inhibition or displacement. Broadly, the IC50 is the concentration needed to halve the response being measured.
